Source: patent US20180185374A1, “INHIBITORS OF MTOR KINASE AS ANTI-VIRAL AGENTS” (THE TRUSTEES OF PRINCETON UNIVERSITY, priority 2009, published 2018)

Legend:
[1] = test system: HSV-1; assay: HSV-1 replication in MEFs, TCID50; assay type: cell-based, herpes simplex virus type 1; conditions: 72 hpi
[2] = test system: HCMV; assay: GFP marker expression from viral genome, percentage of infected cells; assay type: cell-based, human cytomegalovirus; conditions: 24 hpi; 250 nM
Description: (§1) FIG. 2. […] Serum-starved confluent fibroblasts were infected with HCMV at a multiplicity of 3 PFU/cell. […] Control cultures received the vehicle in which Torin1 was dissolved (NT). At 2 hpi cells were harvested, and cell-associated viral DNA was quantified by real-time PCR analysis. Error bars represent the standard errors of the means from two independent experiments performed in duplicate. […] The level of IE1 was determined at 6 hpi by a Western blot assay using an IE1-specific monoclonal antibody. The image is representative of two independent experiments. […] The expression of a GFP marker gene present in the viral genome was monitored at 24 h after infection in the presence or absence of drug.

[3] = test system: rpS6; assay: rpS6 phosphorylation in MCMV-infected MEFs, Western blot; assay type: cell-based, mouse; conditions: 48 hpi; rapamycin 20 nM, Torin1 250 nM, LY294002 20 μM
Description: FIG. 5. […] Fresh serum-free medium containing drugs was added every other day. At the indicated times, cell-free supernatants were harvested, and the amount of virus in the supernatant was quantified by the TCID50 method. Error bars represent the standard errors of the means form two independent experiments performed in duplicate. […] At 48 hpi the phosphorylation state of the indicated mTORC1 targets was analyzed by a Western blot assay by using antibodies to phosphorylated targets (4EBP1-PT^37/46 and rpS6-PS^235/6) and total proteins. The results are representative of three independent experiments.
The identification of the functional roles of proteins in the mTOR signaling pathway has been facilitated by the generation of knockout mouse strains lacking individual mTOR components. For example, the availability of murine embryonic fibroblasts (MEFs) lacking the essential mTORC2 component Rictor led to the definitive identification of mTORC2 as the kinase complex responsible for the complete activation of Akt. We used murine cytomegalovirus (MCMV) and several MEF lines deficient for mTOR signaling pathway components to test for a possible contribution of mTORC2 to rapamycin-resistant phosphorylation events. […] Also as observed for HCMV (FIG. 4A), MCMV infection induced mTORC1 activity, as measured by the increased phosphorylation of rpS6. […]

[4] = test system: HCMV; assay: Western blot of HCMV proteins (IE1, pUL44, pUL99) in infected fibroblasts; assay type: cell-based, human cytomegalovirus; conditions: 6 to 96 hpi; rapamycin 20 nM, Torin1 250 nM; 3 PFU/cell
Description: as §1
FIG. 3. […] (A) Rapamycin-resistant mTOR activity is required for the accumulation of an some but not all HCMV proteins. […] Cells were harvested at the indicated times, and the accumulation of the indicated proteins was analyzed by Western blotting. […] At the indicated times DNA was isolated, and viral DNA was quantified by qPCR. Equivalent amounts of DNA were analyzed for each sample, and the results are normalized to the level of actin DNA per sample. […] At the indicated times the amount of UL99 RNA was determined by qPCR, and the results are normalized to the amount of actin RNA in each sample.
Cells were lysed in radioimmunoprecipitation assay (RIPA) buffer (50 mM Tris-HCl [pH 7.4], […], 0.25% sodium deoxycholate, 150 mM NaCl, 1 mM EDTA) containing protease inhibitors (complete EDTA free; Roche). Protein concentrations in each lysate were determined by the Bradford assay. 30 μg of protein was analyzed per sample. Proteins in cell lysates were resolved on SDS-containing 10% polyacrylamide gels. Proteins were transferred onto Protran membranes by using a semidry transfer apparatus. […]
Antibodies to pUL99 have been described previously (Silva, et al. J. Virol. (2003) 77:10594-10605). In addition, accumulation of HCMV DNA was monitored following infection using the methods described above.

[5] = test system: eIF4F complex; assay: m7GTP-Sepharose cap-binding assay, HCMV-infected fibroblasts; assay type: cell-based, human; conditions: rapamycin 20 nM, Torin1 250 nM
Description: FIG. 4. Rapamycin-resistant mTOR activity is required for 4EBP1 phosphorylation and eIF4F complex integrity during HCMV infection. Serum-starved confluent human fibroblasts were infected with HCMV at a multiplicity of 3 PFU/cell. […] (A) At 48 hpi the phosphorylation status of mTORC1 targets was assessed by Western blot assay by using antibodies to phosphorylated targets (4EBP1-PT^37/46 and rpS6-PS^235/6) and total proteins. Tubulin was assayed as a loading control. (B) Same as above (A) except that cells were harvested at the indicated times. (C and D) After mock infection (M) or infection with HCMV (WT) at a multiplicity of 3 PFU/cell, cultures were harvested at the indicated times. Equivalent amounts of protein from each sample were incubated with m^7GTP-Sepharose, and the isolated protein complexes were analyzed by Western blotting using the indicated antibodies to the eIF4F complex and 4EBP1. In all cases the results are representative of at least two independent experiments. lys, lysate.
The phosphorylation status of 4EBP1 regulates cap-dependent protein translation. Hypophosphorylated 4EBP1 binds to eIF4E and inhibits the formation of the eIF4F complex, while the phosphorylation of 4EBP1 inhibits its interaction with eIF4E. […]

[6] = test system: 4EBP1; assay: 4EBP1 phosphorylation in HSV-1-infected MEFs, Western blot; assay type: cell-based, mouse; conditions: 3 PFU/cell, 8 hpi

Compound: CCC(=O)N1CCN(c2ccc(-n3c(=O)ccc4cnc5ccc(-c6cnc7ccccc7c6)cc5c43)cc2C(F)(F)F)CC1 [Torin1]
- production of HSV-1 ([1]; 4EBP1-null MEFs): failed to inhibit
- HSV-1 replication ([1]; MEFs, 0.05 PFU/cell, rapamycin 20 nM, Torin1 250 nM): inhibited both viruses
- percentage of cells expressing GFP marker [2]: did not alter the percentage of cells
- phosphorylation of rpS6 in MCMV-infected MEFs [3]: completely inhibited
- accumulation of early protein pUL44 [4]: inhibited the accumulation of IE1 and pUL44 to a limited extent
- accumulation of immediate-early protein IE1 [4]: inhibited the accumulation of IE1 and pUL44 to a limited extent
- accumulation of late protein pUL99 [4]: dramatically reduced
- association of 4EBP1 with m7GTP-Sepharose [5]: substantially increased association
- association of eIF4G and eIF4A with the cap analog [5]: reduced association
- phosphorylation of 4EBP1 during HSV-1 infection [6]: inhibited
